From patent US20230085307A1, “PYRIDAZINONE COMPOUND AND HERBICIDE” (NISSAN CHEMICAL CORPORATION, priority 2019, published 2023)

Columns and labels:
wild oat = experiment: Test Example 5: herbicidal effect by foliage application, plastic box (Table 20, symbol I); format: in vivo, wild oat (Avena fatua); conditions: foliage application, AAH 320 g/ha, three weeks after application
In short: (§1)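 Sow seeds spot-wise in sterilized diluvial soil; cover with ~1.5 cm soil. Grow 14 days in greenhouse, 25° C. to 30° C. Spray foliage with emulsion diluted to predetermined amount. Rate effect after 3 weeks.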

oval-leafed pondweed = experiment: Test Example 1: herbicidal activity, application before weed generation under submerged conditions (Table 16, symbol C); format: in vivo, oval-leafed pondweed (Monochoria vaginalis); conditions: 320 g/ha applied herbicide
In short: (§2)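 Alluvial soil was flooded to 4 cm depth, weed seeds were sown mixed and 2.5-leaf rice seedlings were transplanted. On sowing day, the compound's emulsion, diluted in water to a set dose, was applied to the water surface. Plants grew at 25–30 °C and were scored 0–5 after three weeks.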

southern crabgrass = experiment: Test Example 5: herbicidal effect by foliage application, plastic box (Table 20, symbol F); format: in vivo, southern crabgrass (Digitaria ciliaris); conditions: foliage application, AAH 320 g/ha, three weeks after application
In short: as §1

late watergrass = experiment: Test Example 1: herbicidal activity, application before weed generation under submerged conditions (Table 16, symbol A); format: in vivo, late watergrass (Echinochloa oryzicola); conditions: 320 g/ha applied herbicide
In short: as §2

Italian ryegrass = experiment: Test Example 5: herbicidal effect by foliage application, plastic box (Table 20, symbol K); format: in vivo, Italian ryegrass (Lolium multiflorum); conditions: foliage application, AAH 320 g/ha, three weeks after application
In short: as §1

redroot pigweed = experiment: Test Example 5: herbicidal effect by foliage application, plastic box (Table 20, symbol N); format: in vivo, redroot pigweed (Amaranthus retroflexus); conditions: foliage application, AAH 320 g/ha, three weeks after application
In short: as §1

blackgrass = experiment: Test Example 5: herbicidal effect by foliage application, plastic box (Table 20, symbol J); format: in vivo, blackgrass (Alopecurus myosuroides); conditions: foliage application, AAH 320 g/ha, three weeks after application
In short: as §1

barnyard grass [1] = experiment: Test Example 3: herbicidal effect by foliage application, Wagner pot (Table 18, symbol H); format: in vivo, barnyard grass (Echinochloa crus-galli); conditions: 320 g/ha
In short: (§3)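 Plants were sown in alluvial soil held under 0.1–0.5 cm standing water and grown 14 days in a greenhouse at 25–30 °C. An emulsifiable formulation, water-diluted to the set dose, was then sprayed onto the foliage, and effects were scored three weeks later using previously defined criteria.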

green foxtail = experiment: Test Example 5: herbicidal effect by foliage application, plastic box (Table 20, symbol G); format: in vivo, green foxtail (Setaria viridis); conditions: foliage application, AAH 320 g/ha, three weeks after application
In short: as §1

windgrass = experiment: Test Example 5: herbicidal effect by foliage application, plastic box (Table 20, symbol L); format: in vivo, windgrass (Apera spica-venti); conditions: foliage application, AAH 320 g/ha, three weeks after application
In short: as §1

rice flat sedge = experiment: Test Example 3: herbicidal effect by foliage application, Wagner pot (Table 18, symbol E); format: in vivo, rice flat sedge (Cyperus iria); conditions: 320 g/ha
In short: as §3

barnyard grass [2] = experiment: Test Example 5: herbicidal effect by foliage application, plastic box (Table 20, symbol H); format: in vivo, barnyard grass (Echinochloa crus-galli); conditions: foliage application, AAH 320 g/ha, three weeks after application
In short: as §1

persian speedwell = experiment: Test Example 5: herbicidal effect by foliage application, plastic box (Table 20, symbol R); format: in vivo, Persian speedwell (Veronica persica); conditions: foliage application, AAH 320 g/ha, three weeks after application
In short: as §1

lambsquarters = experiment: Test Example 5: herbicidal effect by foliage application, plastic box (Table 20, symbol O); format: in vivo, lambsquarters (Chenopodium album); conditions: foliage application, AAH 320 g/ha, three weeks after application
In short: as §1

chickweed = experiment: Test Example 5: herbicidal effect by foliage application, plastic box (Table 20, symbol P); format: in vivo, common chickweed (Stellaria media); conditions: foliage application, AAH 320 g/ha, three weeks after application
In short: as §1

velvetleaf = experiment: Test Example 5: herbicidal effect by foliage application, plastic box (Table 20, symbol M); format: in vivo, velvetleaf (Abutilon theophrasti); conditions: foliage application, AAH 320 g/ha, three weeks after application
In short: as §1

Chinese sprangletop = experiment: Test Example 3: herbicidal effect by foliage application, Wagner pot (Table 18, symbol D); format: in vivo, chinese sprangletop (Leptochloa chinensis); conditions: 320 g/ha
In short: as §3

Japanese bulrush = experiment: Test Example 1: herbicidal activity, application before weed generation under submerged conditions (Table 16, symbol B); format: in vivo, Japanese bulrush (Schoenoplectus juncoides); conditions: 320 g/ha applied herbicide
In short: as §2

In the case of `COc1cn(C)nc1-c1sc2ccccc2c1-c1c(O)c(C)nn(C)c1=O` [1-105], the “I: wild oat, herbicidal effect” value (wild oat) was 3 (Herbicidal rate of 40% or more and less than 70%), the “Herbicidal effect on C: oval-leafed pondweed (grade 0-5)” value (oval-leafed pondweed) was 2 (Herbicidal rate of 20% or more and less than 40%) and the “F: southern crabgrass, herbicidal effect” value (southern crabgrass) was 3 (Herbicidal rate of 40% or more and less than 70%). For the same compound, the “Herbicidal effect on A: late watergrass (grade 0-5)” value (late watergrass) was 3 (Herbicidal rate of 40% or more and less than 70%), the “K: Italian ryegrass, herbicidal effect” value (Italian ryegrass) was 0 (Herbicidal rate of 5% or less (almost no effect)) and the “N: redroot pigweed, herbicidal effect” value (redroot pigweed) was 5 (Herbicidal rate of 90% or more (almost completely withered)). The “J: blackgrass, herbicidal effect” value (blackgrass) was 0 (Herbicidal rate of 5% or less (almost no effect)), the “herbicidal effect on H (barnyard grass), rating 0-5” value (barnyard grass [1]) was 4 (Herbicidal rate of 70% or more and less than 90%) and the “G: green foxtail, herbicidal effect” value (green foxtail) was 3 (Herbicidal rate of 40% or more and less than 70%). The “L: windgrass, herbicidal effect” value (windgrass) was 4 (Herbicidal rate of 70% or more and less than 90%), the “herbicidal effect on E (rice flat sedge), rating 0-5” value (rice flat sedge) was 4 (Herbicidal rate of 70% or more and less than 90%) and the “H: barnyard grass, herbicidal effect” value (barnyard grass [2]) was 1 (Herbicidal rate of 5% or more and less than 20%). The “R: persian speedwell, herbicidal effect” value (persian speedwell) was 4 (Herbicidal rate of 70% or more and less than 90%), the “O: lambsquarters, herbicidal effect” value (lambsquarters) was 4 (Herbicidal rate of 70% or more and less than 90%) and the “P: chickweed, herbicidal effect” value (chickweed) was 5 (Herbicidal rate of 90% or more (almost completely withered)). The “M: velvetleaf, herbicidal effect” value (velvetleaf) was 3 (Herbicidal rate of 40% or more and less than 70%), the “herbicidal effect on D (Chinese sprangletop), rating 0-5” value (Chinese sprangletop) was 3 (Herbicidal rate of 40% or more and less than 70%) and the “Herbicidal effect on B: Japanese bulrush (grade 0-5)” value (Japanese bulrush) was 3 (Herbicidal rate of 40% or more and less than 70%).

`COc1cccc(Cl)c1-c1sc2ccccc2c1-c1c(O)c(C)nn(C)c1=O` [1-159] was tested, and the “I: wild oat, herbicidal effect” value (wild oat) was 0 (Herbicidal rate of 5% or less (almost no effect)), the “Herbicidal effect on C: oval-leafed pondweed (grade 0-5)” value (oval-leafed pondweed) was 0 (Herbicidal rate of 5% or less (almost no effect)) and the “F: southern crabgrass, herbicidal effect” value (southern crabgrass) was 0 (Herbicidal rate of 5% or less (almost no effect)). The “Herbicidal effect on A: late watergrass (grade 0-5)” value (late watergrass) was 2 (Herbicidal rate of 20% or more and less than 40%), the “K: Italian ryegrass, herbicidal effect” value (Italian ryegrass) was 0 (Herbicidal rate of 5% or less (almost no effect)) and the “N: redroot pigweed, herbicidal effect” value (redroot pigweed) was 0 (Herbicidal rate of 5% or less (almost no effect)). The “J: blackgrass, herbicidal effect” value (blackgrass) was 0 (Herbicidal rate of 5% or less (almost no effect)), the “herbicidal effect on H (barnyard grass), rating 0-5” value (barnyard grass [1]) was 2 (Herbicidal rate of 20% or more and less than 40%) and the “G: green foxtail, herbicidal effect” value (green foxtail) was 0 (Herbicidal rate of 5% or less (almost no effect)). The “L: windgrass, herbicidal effect” value (windgrass) was 0 (Herbicidal rate of 5% or less (almost no effect)), the “herbicidal effect on E (rice flat sedge), rating 0-5” value (rice flat sedge) was 0 (Herbicidal rate of 5% or less (almost no effect)) and the “H: barnyard grass, herbicidal effect” value (barnyard grass [2]) was 0 (Herbicidal rate of 5% or less (almost no effect)). The “R: persian speedwell, herbicidal effect” value (persian speedwell) was 5 (Herbicidal rate of 90% or more (almost completely withered)), the “O: lambsquarters, herbicidal effect” value (lambsquarters) was 0 (Herbicidal rate of 5% or less (almost no effect)) and the “P: chickweed, herbicidal effect” value (chickweed) was 5 (Herbicidal rate of 90% or more (almost completely withered)). For the same compound, the “M: velvetleaf, herbicidal effect” value (velvetleaf) was 0 (Herbicidal rate of 5% or less (almost no effect)), the “herbicidal effect on D (Chinese sprangletop), rating 0-5” value (Chinese sprangletop) was 0 (Herbicidal rate of 5% or less (almost no effect)) and the “Herbicidal effect on B: Japanese bulrush (grade 0-5)” value (Japanese bulrush) was 0 (Herbicidal rate of 5% or less (almost no effect)).
